Literature values as cited in patent US11737967B2, “Increasing the stability of agents for treating keratin material” (Henkel AG & Co. KGaA, priority 2019, dated 2023).

Details: 25° C.

| Structure (SMILES) | solubility in water |
| --- | --- |
| O=C([O-])c1c(Cl)c(Cl)c(Cl)c(Cl)c1-c1c2c(Br)cc(=O)c(Br)c-2oc2c(Br)c(O)cc(Br)c12.O=C([O-])c1c(Cl)c(Cl)c(Cl)c(Cl)c1-c1c2c(Br)cc(=O)c(Br)c-2oc2c(Br)c(O)cc(Br)c12.[Na+].[Na+] [Acid Red 92, disodium salt of 3,4,5,6-tetrachloro-2-(1,4,5,8-tetrabromo-6-hydroxy-3-oxoxanthen-9-yl)benzoic acid] | greater than 10 g/L |
| O=S(=O)([O-])c1ccc(N=Nc2c(O)ccc3ccccc23)cc1.[Na+] [Acid Orange 7, sodium salt of 4-[(2-hydroxy-1-naphthyl)azo]benzene sulphonate] | more than 7 g/L |
| CCN(Cc1cccc(S(=O)(=O)[O-])c1)c1ccc(C(=C2C=CC(=[N+](CC)Cc3cccc(S(=O)(=O)[O-])c3)C=C2)c2ccccc2S(=O)(=O)[O-])cc1.[Na+].[Na+] [Acid Blue 9] | more than 20 % by weight |

The remaining lines, values ahead:

| solubility in water | Structure (SMILES) |
| --- | --- |
| 2500 µg/mL | Nc1cc(S(=O)(=O)[O-])cc2cc(S(=O)(=O)[O-])c(N=Nc3ccccc3)c(O)c12.[Na+].[Na+] [Acid Red 33, diantrium salt of 5-amino-4-hydroxy-3-(phenylazo)-naphthalene-2,7-disulphonate] |
| highly soluble | O=C([O-])C1=NN(c2ccc(S(=O)(=O)[O-])cc2)C(=O)C1N=Nc1ccc(S(=O)(=O)[O-])cc1.[Na+].[Na+].[Na+] (centres unmarked) [Acid Yellow 23, trisodium salt of 4,5-dihydro-5-oxo-1-(4-sulfophenyl)-4-((4-sulfophenyl)azo)-1H-pyrazole-3-carboxylic acid] |
